{"source": "paper PMC3310340", "about": "(Bioconjugate Chemistry, 2012)", "origin": "cited, not measured here", "system": "rats", "settings": "administered orally to rats; ref material safety data sheet for KHP"}
{"smiles": "O=C(O)c1ccccc1C(=O)O", "note": "[KHP, potassium biphthalate]", "values": [{"measurement": "LD50", "result": "> 3200", "unit": "mg/kg"}]}
